Measured values as given in article PMC3703888, “Integration of Different “-omics” Technologies Identifies Inhibition of the IGF1R-Akt-mTOR Signaling Cascade Involved in the Cytotoxic Effect of Shikonin against Leukemia Cells” (Evidence-based Complementary and Alternative Medicine : eCAM, 2013).

Columns and labels:
EGFR = test system: EGFR; set-up: method as in PMID 14568164; conditions: previous studies ref 24; cited from earlier work
U937 cells [1] = experiment: mRNA microarray; format: cell-based, human; conditions: shikonin at IC50 concentration, 24 h vs DMSO
Procedure: Total RNA from U937 cells after 24 h of treatment with shikonin at IC50 concentration or DMSO solvent control was isolated using RNeasy Kit from Qiagen (Hilden, Germany) according to the manufacture's instruction. The quality of total RNA was checked by gel analysis using the total RNA Nano chip assay on an Agilent 2100 Bioanalyzer (Agilent Technologies GmbH, Berlin, Germany). Only samples with RNA index values greater than 9.3 were selected for expression profiling. Microarray experiments were performed in duplicates for treated and untreated samples. Biotin-labeled cRNA samples for hybridization on Illumina Human Sentrix-HT12 Bead Chip arrays (Illumina, Inc.) were prepared according to Illumina's recommended sample labeling procedure based on the modified Eberwine protocol. Biotin-16-UTP was purchased from Roche Applied Science (Penzberg, Germany). The cRNA was column purified with TotalPrep RNA Amplification Kit and eluted in 60 μL of water. Quality of cRNA was controlled using the RNA Nano Chip Assay on an Agilent 2100 Bioanalyzer and spectrophotometrically quantified (NanoDrop). Hybridization was also performed according the manufacturer's recommendations. Microarray scanning was done using a Beadstation array scanner, setting adjusted to a scaling factor of 1 and PMT settings at 430. Data was extracted for each bead individually, and outliers were removed when the MAD (median absolute deviation) was greater than 2.5. Data analysis was performed by using the quantile normalization algorithm without background subtraction, and differentially regulated genes were defined by calculating the standard deviation differences of a given probe in a one-by-one comparison of samples or groups. The expression data obtained was filtered with Chipster data analysis platform. These steps include filtering of genes by two times standard deviation of deregulated genes and a subsequent assessment of significance using empirical Bayes t-test (P < 0.05).

U937 cells [2] = experiment: miRNA microarray; format: cell-based, human; conditions: shikonin at IC50 concentration, 24 h
Procedure: miRNA from U937 cells after 24 h of treatment with shikonin at IC50 concentration was isolated using miRNeasy Kit from Qiagen (Hilden, Germany) according to the manufacture's instruction. The quality of miRNA was checked by gel analysis using the Small RNA Nano chip assay on an Agilent 2100 Bioanalyzer (Agilent Technologies GmbH, Germany). The miRNA microarray was performed at the Institute for Molecular Biology (IMB). Microarray experiments were performed in duplicates for treated and untreated samples. Human miRNA microarray chips (8 × 60 K, Agilent Technologies) were used. Probe labeling and hybridization were carried out following the miRNA microarray system with miRNA complete labeling and hyb kit protocol (Agilent Technologies). Briefly, extracted RNA was treated with phosphatase. Dephosphorylated RNA was fluorescently labeled by ligation of Cyanine 3-pCp molecules to the 3′ end of RNA molecules using Agilent's miRNA Complete Labeling and Hyb Kit. The labeled RNA was desalted and hybridized for 20 hours at 55°C and 20 rpm. Microarray slides were washed and scanned with Agilent Microarray Scanning system. Images were analyzed and data were extracted, background subtracted, and normalized using the standard procedures of Agilent Feature Extraction Software. The expression data obtained was filtered with Chipster data analysis platform. These steps include filtering of miRNAs by two times standard deviation of deregulated genes and a subsequent assessment of significance using empirical Bayes t-test (P < 0.05).

In the case of CC(C)=CC[C@@H](O)C1=CC(=O)c2c(O)ccc(O)c2C1=O [shikonin], the EGFR phosphorylation (EGFR) is listed as “inhibits EGFR phosphorylation”, the “FC mRNA ACTB (Actin, cytoplasmic 1)” value (U937 cells [1]) is listed as −6.8 and the “FC mRNA ACTG1 (Actin, cytoplasmic 2)” value (U937 cells [1]) is listed as −11.9. The “FC mRNA ALDOA (Fructose-bisphosphate aldolase A)” value (U937 cells [1]) was −17.6, the “FC mRNA ANXA1 (Annexin A1)” value (U937 cells [1]) was “+4.1” and the “FC mRNA ARPC1B (Actin-related protein 2/3 complex subunit 1B)” value (U937 cells [1]) was −7.8. For the same compound, the “FC mRNA CCL2 (C-C motif chemokine 2)” value (U937 cells [1]) was “+4.2”, the “FC mRNA CCT7 (T-complex protein 1 subunit eta)” value (U937 cells [1]) was −7.8 and the “FC mRNA ERP29 (Endoplasmic reticulum resident protein 29)” value (U937 cells [1]) was −6.0. The “FC mRNA HMOX1 (Heme oxygenase 1)” value (U937 cells [1]) was “+4.1”, the “FC mRNA HSPD1 (60 kDa heat shock protein, mitochondrial)” value (U937 cells [1]) was −6.6 and the “FC mRNA JUN (Transcription factor AP-1)” value (U937 cells [1]) was “+3.2”. For the same compound, the “FC mRNA LY96 (Lymphocyte antigen 96)” value (U937 cells [1]) was “+4.5”, the “FC mRNA MAFB (Transcription factor MafB)” value (U937 cells [1]) was “+3.5” and the “FC mRNA MLLT11 (Protein AF1q)” value (U937 cells [1]) was “+6.2”. For the same compound, the “FC mRNA NCF1 (Neutrophil cytosol factor 1)” value (U937 cells [1]) was −5.9, the “FC mRNA PSMC4 (26S protease regulatory subunit 6B)” value (U937 cells [1]) was −7.7 and the “FC mRNA S100A8 (Protein S100-A8)” value (U937 cells [1]) was “+4.7”. For the same compound, the “FC mRNA S100A9 (Protein S100-A9)” value (U937 cells [1]) was “+4.2”, the “FC mRNA SLC39A3 (Zinc transporter ZIP3)” value (U937 cells [1]) was −6.2 and the “FC mRNA VIM (Vimentin)” value (U937 cells [1]) was “+4.2”. The “FC miRNA miR-19b-2-5p” value (U937 cells [2]) was “+5.2”, the “FC miRNA miR-20b-3p” value (U937 cells [2]) was “+3.7” and the “FC miRNA miR-30a-3p” value (U937 cells [2]) was “+2.9”. The “FC miRNA miR-33b-5p” value (U937 cells [2]) was “+3.1”, the “FC miRNA miR-92a-3p” value (U937 cells [2]) was “+2.7” and the “FC miRNA miR-155-3p” value (U937 cells [2]) was “+3.4”. The “FC miRNA miR-181a-2-3p” value (U937 cells [2]) was “+3.2”, the “FC miRNA miR-193b-3p” value (U937 cells [2]) was “+2.7” and the “FC miRNA miR-223-5p” value (U937 cells [2]) was “+2.7”. For the same compound, the “FC miRNA miR-513a-5p” value (U937 cells [2]) was −4.7, the “FC miRNA miR-630” value (U937 cells [2]) was −5.1 and the “FC miRNA miR-638” value (U937 cells [2]) was −6.1. For the same compound, the “FC miRNA miR-1185-5p” value (U937 cells [2]) was −5.2, the “FC miRNA miR-1207-5p” value (U937 cells [2]) was −6.3 and the “FC miRNA miR-1246” value (U937 cells [2]) was −6.0. For the same compound, the “FC miRNA miR-1290” value (U937 cells [2]) was −6.2, the “FC miRNA miR-1915-3p” value (U937 cells [2]) was −13.8 and the “FC miRNA miR-2861” value (U937 cells [2]) was −9.8. For the same compound, the “FC miRNA miR-3907” value (U937 cells [2]) was “+2.8” and the “FC miRNA miR-4299” value (U937 cells [2]) was −30.6.
